# Results from US20240182526A1, “COMPOSITIONS AND METHODS FOR MODULTING INFLAMMATORY AND DEGENERATIVE DISORDER” (University of Southern California, priority 2021, published 2024).
# Test system: ADAMTS4, ADAMTS5 and MMP13 transcription
# Experiment: qPCR of matrix-degrading genes in OSM-stimulated pig articular chondrocytes
# Format: cell-based
# Settings: 48 hours
# Experimental: Quantitative Real-Time PCR. Power SYBR Green (Applied Biosystems) RT-PCR amplification and detection was performed using an Applied Biosystems Step One Plus Real-Time PCR machine. The comparative Ct method for relative quantification (2-ΔΔCt) was used to quantitate gene expression. TBP (TATA-box binding protein) was used for gene normalization and expressed relative to a calibrator (sample in each set with lowest expression). Q-PCR for was conducted using the following primers: human: TBP forward, 5′ GATGGACGTTCGGTTTAGG 3′ (SEQ ID NO:28); TBP reverse, 5′ AGCAGCACAGTACGAGCAA 3′ (SEQ ID NO:29), MMP13 forward, 5′ […] 3′(SEQ ID NO:30); MMP13 reverse, 5′ GAACCCCGCATCTTGGCTT 3′ (SEQ ID NO:31), ADAMTS5 forward 5′ […] 3′ (SEQ ID NO:32); ADAMTS5 reverse, 5′ […] 3′ (SEQ ID NO:33), ADAMTS4 forward 5′ […] 3′ (SEQ ID NO:34); ADAMTS4 reverse, 5′ […] 3′ (SEQ ID NO:35), Collagen II forward, 5′ […] 3′ (SEQ ID NO:36); Collagen II reverse 5′ […] 3′ (SEQ ID NO:37); Aggrecan forward, 5′ AGGCAGCGTGATCCTTACC 3′ (SEQ ID NO:38); Aggrecan reverse, 5′ […] 3′ (SEQ ID NO:39). Cells were treated with 10 ng/mL OSM and/or with 5 μM SRC (SU6656) inhibitor, 10 ng/mL OSM and/or 50 ng/mL WT/F814 plasmids; 10 ng/mL OSM and/or 100 or 300 ug/mL of peptide QQpYF (Evseenko lab, Thermo Scientific); 10 uM R805 and/or 10 ng/mL OSM.
compound,measurement,value
Cc1ccc(-c2csc(NC(=O)c3ccccn3)n2)cc1 [Peptide R805],"OSM-induced transcription of matrix-degrading genes (ADAMTS4, ADAMTS5, MMP13), qPCR",able to decrease the MMP13 and ADAMTS4/5 gene expression
